The record followed here is US7786161B2, “Carboxylic acid derivatives and pharmaceutical agent comprising the same as active ingredient” (ONO Pharmaceutical Co., Ltd., priority 2001, dated 2010).

pKi: −log10 of the molar value.

Experiment in all cases: Receptor-binding experiment using cells expressing prostanoid receptor subtypes (3H-PGE2 binding, CHO cell membrane)
One assay addresses T1, EP3 receptor (Mus musculus, UniProt P30557).
T1 construct: expressed in transfected cells; host or cells: CHO cells
T1 sequence (P30557 1-365): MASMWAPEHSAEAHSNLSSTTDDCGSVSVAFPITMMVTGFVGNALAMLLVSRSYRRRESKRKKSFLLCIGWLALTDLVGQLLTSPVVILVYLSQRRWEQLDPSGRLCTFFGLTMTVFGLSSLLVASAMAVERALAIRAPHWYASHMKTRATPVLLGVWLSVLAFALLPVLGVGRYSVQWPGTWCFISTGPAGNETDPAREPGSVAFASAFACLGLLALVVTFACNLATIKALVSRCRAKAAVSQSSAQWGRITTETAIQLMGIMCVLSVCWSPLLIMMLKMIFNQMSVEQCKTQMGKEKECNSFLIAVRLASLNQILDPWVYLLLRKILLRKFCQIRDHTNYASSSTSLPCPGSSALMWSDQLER
The conditions noted are these: 3H-PGE2 (2.5 nM) binding inhibition, membrane of CHO cells expressing mouse EP3; Ki=IC50/(1+([C]/Kd)). Here is the method: (§1) The pharmacological activity is confirmed by the following receptor-binding experiment by using cells expressing prostanoid receptor subtypes. • (i) Receptor-binding experiment by using cells expressing prostanoid receptor subtypes In accordance with the method of Sugimoto et al. [J. Biol. Chem., 267, 6463-6466 (1992)], CHO cells respectively expressing prostanoid receptor subtypes (mouse EP1, EP2, EP3, and EP4) were prepared to give membrane preparations.
(§2) Each membrane fraction (50 μl) thus prepared and a reaction solution (150 μl) containing ^3H-PGE2 were incubated at room temperature for 1 hour. After ceasing the reaction with an ice-cooled buffer (3 ml), the bound ^3H-PGE2 was trapped in a glass filter (GF/B) by filtering with suction under reduced pressure. Then the bound radioactivity was measured with a liquid scintillator.
(§3) Kd value and Bmax value were determined by Scatchard plots [Ann. N.Y. Acad. Sci., 51, 660 (1949)]. Nonspecific bond was determined as bond in the presence of unlabeled PGE2 in excess (2.5 μM). The ^3H-PGE2-binding inhibitory effects of the invention compounds were measured by adding ^3H-PGE2 (2.5 nM) and the invention compounds at various concentrations. In every reaction, the following buffer was employed.
(§4) Buffer: potassium phosphate (10 mM, pH 6.0), EDTA (1 mM), MgCl2 (10 mM), NaCl (0.1 M).
(§5) The dissociation constant Ki (μM) of each compound was determined in accordance with the following formula. […] Ki=IC50/(1+([C]/Kd))

A further assay addresses T2, EP4 receptor (Mus musculus, UniProt P32240).
T2 construct: expressed in transfected cells; host or cells: CHO cells
The conditions noted are these: 3H-PGE2 (2.5 nM) binding inhibition, membrane of CHO cells expressing mouse EP4; Ki=IC50/(1+([C]/Kd)). The procedure:
as §1, §2, §3, §4, §5

The target of another assay is T3, EP1 receptor (Mus musculus, UniProt P35375).
T3 construct: expressed in transfected cells; host or cells: CHO cells
T3 sequence (P35375 1-405): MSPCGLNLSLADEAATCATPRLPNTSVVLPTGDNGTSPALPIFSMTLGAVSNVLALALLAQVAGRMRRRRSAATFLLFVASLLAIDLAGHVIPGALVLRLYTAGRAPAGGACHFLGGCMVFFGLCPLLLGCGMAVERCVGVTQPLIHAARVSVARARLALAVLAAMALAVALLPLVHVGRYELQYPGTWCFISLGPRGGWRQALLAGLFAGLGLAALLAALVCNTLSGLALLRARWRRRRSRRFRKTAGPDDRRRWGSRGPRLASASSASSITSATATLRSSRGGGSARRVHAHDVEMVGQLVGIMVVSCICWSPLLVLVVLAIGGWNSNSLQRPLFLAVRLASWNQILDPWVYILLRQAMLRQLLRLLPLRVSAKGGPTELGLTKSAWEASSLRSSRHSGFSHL
The conditions noted are these: 3H-PGE2 (2.5 nM) binding inhibition, membrane of CHO cells expressing mouse EP1; Ki=IC50/(1+([C]/Kd)). Here is the method: as §1, §2, §3, §4, §5

The target of a further assay is T4, EP2 receptor (Mus musculus, UniProt Q62053).
T4 construct: expressed in transfected cells; host or cells: CHO cells
The conditions noted are these: 3H-PGE2 (2.5 nM) binding inhibition, membrane of CHO cells expressing mouse EP2; Ki=IC50/(1+([C]/Kd)). The procedure:
as §1, §2, §3, §4, §5

T2 sequence (P32240 whole entry): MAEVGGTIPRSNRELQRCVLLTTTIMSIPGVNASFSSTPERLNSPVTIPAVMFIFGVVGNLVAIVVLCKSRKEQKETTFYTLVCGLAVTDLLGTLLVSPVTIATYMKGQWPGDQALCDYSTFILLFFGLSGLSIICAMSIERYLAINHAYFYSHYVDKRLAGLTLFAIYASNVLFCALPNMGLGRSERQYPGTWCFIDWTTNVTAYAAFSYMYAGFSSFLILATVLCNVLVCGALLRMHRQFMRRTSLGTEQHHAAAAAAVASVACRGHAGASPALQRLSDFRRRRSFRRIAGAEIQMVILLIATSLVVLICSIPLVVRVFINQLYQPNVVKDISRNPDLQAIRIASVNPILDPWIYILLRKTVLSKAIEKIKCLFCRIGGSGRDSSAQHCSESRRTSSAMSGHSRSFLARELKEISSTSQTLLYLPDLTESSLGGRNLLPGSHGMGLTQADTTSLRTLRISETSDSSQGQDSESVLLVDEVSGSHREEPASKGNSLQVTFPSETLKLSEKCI
T4 sequence (Q62053 whole entry): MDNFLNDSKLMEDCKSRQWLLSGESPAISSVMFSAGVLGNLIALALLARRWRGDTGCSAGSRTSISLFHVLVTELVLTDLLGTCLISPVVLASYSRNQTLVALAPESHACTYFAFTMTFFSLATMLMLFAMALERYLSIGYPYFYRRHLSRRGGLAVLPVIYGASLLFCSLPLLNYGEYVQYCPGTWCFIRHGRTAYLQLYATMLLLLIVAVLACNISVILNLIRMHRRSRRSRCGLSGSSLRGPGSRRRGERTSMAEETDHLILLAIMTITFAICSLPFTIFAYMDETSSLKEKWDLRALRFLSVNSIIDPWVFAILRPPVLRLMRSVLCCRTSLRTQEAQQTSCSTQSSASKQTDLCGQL

For orientation: pKi means the Ki on a negative log10 scale, so that one unit is a factor of ten. A lower pKi goes with a large Ki. Consider `CSCc1ccc(CCCC(=O)O)c(NC(=O)C(C)c2cccc3ccccc23)c1` (stereo not shown) [Example 8(13), 4-(2-((2-(naphthalen-1-yl)propanoyl)amino)-4-methylthiomethylphenyl)butanoic acid], for which the pKi was 6.57 at EP3 receptor, 7.42 at EP4 receptor, less than 5.00 on EP1 receptor and less than 5.00 at EP2 receptor.
